Bounds are passed on as bounds.

Data set [1] concerns MDA-MB-231 breast cancer cells. Nature of the data set: cells. It is filed as cell-based, human. The following applies: Homo sapiens. The procedure:
(§1) Breast cancer cell lines (e.g. human MCF-7 and MDA-MB-231 cells) were used in these studies. Cancer cells (5×10^3 cells) were seeded in 96-well plates (TPP) with […] complete medium. The plates were incubated in incubator overnight and the cells were allowed to adhere to the plates. […] Each dosage was triplicated in 3 wells to obtain the average change of cell viability. […] The plates were put back into the incubator and further incubated for 4 h. To dissolve the insoluble compound, formazan, formed by MTT, 100 μl of 10% SDS in 0.01 M HCl was added. The plates were incubated at 37° C. overnight. The color change was measured by spectrophotometer at 570 nm. Control set up (without any drug) was used as base to calculate percentage of cell viability which was used to plot the dose response curve by the software Prism 6.0 (GraphPad) to find the IC50 values. […] CalcuSyn software (Biosoft) was used for calculating the CI values.

For a further data set, the system named is MCF-7 cancer cells. The data set is described as follows: cells. It is filed as cell-based, human. The following applies: Homo sapiens. The procedure:
as §1

In a further data set the test system is LOVO. Nature of the data set: cells. The settings on record: Homo sapiens, LoVo, 72 h. The procedure: (§2) The in vitro efficacy of ABD and rhArg fusion protein was tested on human colon cancer cell lines. Human colon cancer cell lines (HCT116, LOVO and HT29) were seeded in 96-well plate at densities of 5×10^3 cells/well. After 1 day of incubation, the culture medium was replaced with medium containing different concentrations (2, 0.4, 0.08, 0.016 and 0.0032 U/ml) of N-ABD094-rhArg (SEQ ID NO: 50). MTT assay was conducted at Day 3 [3 days after N-ABD094-rhArg (SEQ ID NO: 50) treatment] to determine the IC50 values. The culture medium was replaced with MTT solution (1 mg/ml) (Invitrogen) and incubated at 37° C. for 4 h. After incubation, MTT solution was replaced with dimethyl sulfoxide (DMSO), and the absorbance at 570 nm was measured with a reference of 650 nm. The cell viability was determined by dividing the absorbance of N-ABD094-rhArg-treated cells by the average absorbance of untreated cells. […] Three independent sets of experiments (n=3) were performed for each cell line.
(§3) MTT assay was conducted at Day 3. Three independent sets of experiments (n=3) were performed for each cell line.
(§4) For drug-combination assay, a non-constant ratio analysis was performed (Hastak et al., 2010, Cancer Res. 70(20):7970-7980). Colon cancer cells were seeded and after 1 day of incubation, the culture medium was replaced with medium containing different concentrations of N-ABD094-rhArg (SEQ ID NO: 50) (2, 0.4, 0.08, 0.016, 0.0032 U/ml) combined with fixed amount of CQ according to its IC50. MTT assay was conducted at Day 3. The combination index (CI) of combined N-ABD094-rhArg (SEQ ID NO: 50) and CQ treatment was analyzed by software CalcuSyn version 2.1. Three independent sets of experiments (n=3) were performed for each cell line.

Data set [2] deals with HCT116. The data set is described as follows: cells. The settings on record: Homo sapiens, HCT-116, 72 h. As for the experimental part: as §2, §3, §4
For another data set, the system named is HT29. The data set is described as follows: cells. The settings on record: Homo sapiens, HT-29, 72 h. The procedure:
as §2, §3, §4

The target in data set [3] is human serum albumin (HSA), P02768.
Data set [4] has as its target human serum albumin (HSA) (human, UniProt P02768 25-609). The data set is described as follows: non-denaturing PAGE; 30 pmol HSA titrated with 7.5-120 pmol fusion protein.
The subject of the next data set is BxPC-3. Nature of the data set: MTT cytotoxicity of ADI, BCA, ADC. It is filed as cell-based, human. The settings on record: BxPC-3, 72 h. As for the experimental part:
(§5) For cell proliferation assay, cancer cells (5×10^3) in a volume of 100 μL of growth medium were seeded to each well of a 96-well plate and incubated for 24 h. The culture medium was replenished by arginine free medium (AFM) supplemented with different concentrations of arginine, fresh medium containing various concentrations of different arginine depleting enzymes as well as using these enzymes in combination with citrulline. The plate was incubated for an additional 1-3 days at 37° C. in an incubator containing a humidified atmosphere of 95% air and 5% CO2.
(§6) Quantitative cell proliferation assays were performed using MTT (3-[4,5-dimethylthiazol-2-yl]-2,5-diphenyl tetrazolium bromide) assays as widely described elsewhere. The amount of arginine depleting enzyme required to kill 50% of the cells in a culture was defined as IC50.
(§7) The cytotoxicities of arginine deiminase (ADI), bacterial arginase (BCA) and arginine decarboxylase (ADC) were determined in a comparative study in five tumor cell lines: A375, HeLa, BxPC-3, PANC-1, and HCT116.
(§8) Table 6. IC50 and maximum cytotoxicity of ADI, BCA and ADC on five human cancer cell lines. Cells were treated for 72 h before MTT analysis. Data are the mean of three experiments performed in triplicate. IC50 value is defined as the amount of enzyme needed to achieve 50% inhibition of cell viability. Maximum cytotoxicity is expressed as the maximum percentage of nonviable cells achieved by each enzyme. ADI-resistant cells are defined as cells of which more than 50% survive under the maximum dose of ADI tested.

The subject of another data set is PANC-1. Nature of the data set: MTT cytotoxicity of ADI, BCA, ADC. The following applies: PANC-1, 72 h. Type of data set: cell-based, human. As for the experimental part: as §5, §6, §7, §8
In the next data set the test system is A375. The data set is described as follows: MTT cytotoxicity of ADI, BCA, ADC. Type of data set: cell-based, human. The settings on record: A375, 72 h. As for the experimental part:
as §5, §6, §7, §8

In data set [5] the test system is HCT116. The data set is described as follows: MTT cytotoxicity of ADI, BCA, ADC. Type of data set: cell-based, human. The following applies: HCT116, 72 h. As for the experimental part:
as §5, §6, §7, §8

In another data set the test system is HeLa. The data set is described as follows: MTT cytotoxicity of ADI, BCA, ADC. It is filed as cell-based, human. The settings on record: 72 h. The procedure: as §5, §6, §7, §8
[6] abbreviates: MDA-MB-231, 72 h, read-out: Mean of % Cell Viability.
[7] abbreviates: MCF7, read-out: Mean of % Cell Viability.

For `CCN(CC)CCCC(C)Nc1ccnc2cc(Cl)ccc12` (stereo not drawn) [CQ, chloroquine], the IC50 in [1] (MDA-MB-231) was 73.4 µM; with MCF-7 cancer cells (MCF7) it was 67.2 µM; with LOVO, 15 µM; in the data set on HCT116 [2], more than 100 µM; in the data set on HT29 it was 71 µM. The figures for the viability at 0.16 µM (in data set [1] (setting [6]); in the data set with MCF-7 cancer cells (setting [7])) were 99% and 96.3%, respectively. Also, the viability at 0.8 µM in [1] (setting [6]) is 98.1%; in the data set on MCF-7 cancer cells (setting [7]), 85.9%. Besides, the viability at 4 µM in [1] (setting [6]) stood at 82.2%; with MCF-7 cancer cells (setting [7]), 83.3%. In addition, the viability at 20 µM in data set [1] (setting [6]) amounted to 75.2%; in the data set on MCF-7 cancer cells (setting [7]), 72.4%. Besides, the viability at 100 µM in data set [1] (setting [6]) is 43.2%; with MCF-7 cancer cells (setting [7]) it was 40.7%.

B1: BCA-6xHis-ABD fusion protein BHA (SEQ ID NO: 75) (protein)
chain: MKPISIIGVPMDLGQTRRGPDMGPSAMRYAGVIERLERLHYDIEDLGDIPIGKAERLHEQGDSRLRNLKAVAEANEKLAAAVDQVVQRGRFPLVLGGDHSIAIGTLAGVAKHYERLGVIWYDAHGDVNTAETSPSGNIHGMPLAASLGFGHPALTQIGGYCPKIKPEHVVLIGVRSLDEGEKKFIREKGIKIYTMHEVDRLGMTRVMEETIAYLKERTDGVHLSLDLDGLDPSDAPGVGTPVIGGLTYRESHLAMEMLAEAQIITSAEFVEVNPILDERNKTASVAVALMGSLFGEKLMHHHHHHAQHDEAVDANSLAEAKVLANRELDKYGVSDYYKNLINNAKTVEGVKALIDEILAALP
With B1, in [3], the “specific activity (arginine catabolic activity, DAMO assay) at BHA:HSA mole ratios 1:10, 1:5, 1:1, 5:1 and 10:1” value is “approximately 200 U/mg”.

B2: N-ABD-rhArg fusion protein (SEQ ID NO: 49) (enzyme)
chain: MHHHHHHDEAVDANSLAEAKVLANRELDKYGVSDYYKNLINNAKTVEGVKALIDEILAALPSGSNNNNNNGSGGMSAKSRTIGIIGAPFSKGQPRGGVEEGPTVLRKAGLLEKLKEQECDVKDYGDLPFADIPNDSPFQIVKNPRSVGKASEQLAGKVAEVKKNGRISLVLGGDHSLAIGSISGHARVHPDLGVIWVDAHTDINTPLTTTSGNLHGQPVSFLLKELKGKIPDVPGFSWVTPCISAKDIVYIGLRDVDPGEHYILKTLGIKYFSMTEVDRLGIGKVMEETLSYLLGRKKRPIHLSFDVDGLDPSFTPATGTPVVGGLTYREGLYITEEIYKTGLLSGLDIMEVNPSLGKTPEEVTRTVNTAVAITLACFGLAREGNHKPIDYLNPPK
notes: It was expressed in E. coli ER2566 and purified on a Ni-IDA column
Consider B2, for which, in [4], the binding result is “binds”.

B3: BCA: bacterial arginase (Bacillus caldovelox arginase) (protein, UniProt P53608 1-299, looked up)
Arginase: MKPISIIGVPMDLGQTRRGVDMGPSAMRYAGVIERLERLHYDIEDLGDIPIGKAERLHEQGDSRLRNLKAVAEANEKLAAAVDQVVQRGRFPLVLGGDHSIAIGTLAGVAKHYERLGVIWYDAHGDVNTAETSPSGNIHGMPLAASLGFGHPALTQIGGYSPKIKPEHVVLIGVRSLDEGEKKFIREKGIKIYTMHEVDRLGMTRVMEETIAYLKERTDGVHLSLDLDGLDPSDAPGVGTPVIGGLTYRESHLAMEMLAEAQIITSAEFVEVNPILDERNKTASVAVALMGSLFGEKLM
Turning to B3, the IC50 in the data set on BxPC-3 turned out to be 0.44 µg/mL; with PANC-1, 1.81 µg/mL; with A375, 0.12 µg/mL; with HCT116 [5], 0.22 µg/mL; in the data set on HeLa, 1.25 µg/mL. The Maximum cytotoxicity came out at 84.82% in the data set on BxPC-3; 63.01% with PANC-1; 86.92% in the data set on A375; 81.05% in the data set with HCT116 [5]; 61.14% in the data set with HeLa.

A word on the IC50: it is the concentration that inhibits the measured activity by half. A word on the viability: it is a per cent measure of how many cells are alive, often set against a control.

These data come from patent US20200181597A1, “Composition and Application of Arginine-depleting Agents for Cancer, Obesity, Metabolic Disorders, and Related Complications and Comorbidities” (THE HONG KONG POLYTECHNIC UNIVERSITY, priority 2018, published 2020).
